Measurements reported in patent publication US20250282779A1, “SUBSTITUTED 5,6,7,8-TETRAHYDROPYRIDO[2,3-D]PYRIMIDINE-2,4-DIONES FOR TREATING CARDIAC DISEASES” (MYOKARDIA, INC., priority 2018, published 2025).

Columns and labels:
bovine cardiac myosin [1] = target: T1, bovine cardiac myosin (Bos taurus (Bovine), UniProt Q9BE39); test: Myosin inhibition assay (bcMF pCa 6 IC50); type: biochemical; conditions: bovine cardiac myofibrils, calcium giving 50% activation
Description: Myosin inhibition assay (bcMF pCa 6IC50 (μM))
Small molecule agents were assessed for their ability to inhibit the enzymatic activity of bovine cardiac myosin using a biochemical assay that couples the release of ADP (adenosine diphosphate) from cardiac myosin to an enzymatic coupling system consisting of pyruvate kinase and lactate dehydrogenase (PK/LDH) and monitoring the absorbance decrease of NADH (at 340 nm) as a function of time. PK converts ADP to ATP (adenosine triphosphate) by converting PEP (phosphoenolpyruvate) to pyruvate. Pyruvate is then converted to lactate by LDH by converting NADH (nicotinamide adenine dinucleotide) to NAD (oxidized nicotinamide adenine dinucleotide). The source of cardiac myosin was from bovine heart in the form of skinned myofibrils. Prior to testing small molecule agents, the bovine myofibrils were assessed for their calcium responsiveness and the calcium concentration that achieves a 50% activation of the myofibril system was chosen as the final condition for assessing the inhibitory activity of the small molecule agents. All enzymatic activity was measured in a buffered solution containing 12 mM PIPES (piperazine-N,N′-bis(2-ethanesulfonic acid), 2 mM magnesium chloride at pH 6.8 (PM12 buffer). Final assay conditions were 1 mg/mL of bovine cardiac myofibrils, 0.4 mM PK/LDH, 50 uM ATP, 0.1 mg/mL BSA (bovine serum albumin), 10 ppm antifoam, 2 mM BME, 0.5 mM NADH, and 1.5 mM PEP at the desired free calcium concentration required to achieve 50% activation of the myofibrils.
A dilution series of compound was created in DMSO such that the final desired concentration of compound would be achieved in a volume of 30 μL with a fixed DMSO concentration of 3.3% (v/v). Typically 1 μL of the dilution series were added to 384 well plate to achieve a 10 point dose response. Following the addition of 14 μL of a solution containing bovine cardiac myofibrils, PK/LDH and a solution of calcium (that achieved 50% activation), the enzymatic reaction was started with the addition of 15 μL of a solution containing ATP, PEP and NADH. The reaction progress was followed in a PerkinElmer Envision plate reader at ambient temperature using clear bottom plates. The plate reader was configured to read absorbance at 340 nm in kinetics mode for 15 minutes. Data were recorded as the slope of the absorbance response to time. The slopes of the absorbance response as a function of time were normalized to slopes on the plate containing DMSO. This normalized rate was then plotted as a function of small molecule concentration and the data was fitted to a four-parameter fit using EXCEL XLfit. The IC50 is the concentration at which fifty percent of the total response is inhibited.

[2] = Reactive metabolite identification (glutathione adducts); type: in vitro ADME, human
Description: Reactive Metabolite Identification
In vitro determination of reactive metabolite formation for small molecules by detection of glutathione adducts formed in vitro in incubations with human liver microsomes fortified with NADPH and glutathione.
Methods: The metabolism of small molecules (30 μM) for glutathione adduct formation was assessed in incubations (200 μL volume, […], 60 min incubation time) with liver microsomes from human (1 mg/mL protein) conducted in potassium phosphate buffer (0.1 M, pH 7.4) for 1 h at 37° C. in a 96-well plate (2 mL well volume) and were performed in the absence of NADPH (used as a negative control) and in the presence of NADPH (1 mM) and glutathione (GSH, 10 mM). Incubations with liver microsomes were performed in a shaking water bath incubator with slow horizontal shaking (30 rpm). To obtain 30 μM incubation concentration of a compound, a 3 mM substrate stock solution in DMSO was used. Final incubation mixtures contained 148 μL of potassium phosphate buffer, 10 μL of liver microsome solution (20 mg protein/mL), 2 μL of the 3 mM substrate solution and where incubations were initiated by the addition of 40 μL of NADPH solution (5 mM dissolved in potassium phosphate buffer). Non-NADPH containing incubations were supplemented with 40 μL of potassium phosphate buffer. Post-incubation, reactions were terminated by adding an equal volume of acetonitrile containing 20 nM carbamazepine internal standard and 3% formic acid. Quenched samples then were centrifuged (4,600 rpm, 4° C., 10-min) after which the supernatants were transferred to a 96-well LC-MS sample analysis plate and diluted with one volume equivalent of HPLC-grade water, and then heat sealed with aluminum foil prior to analysis by liquid chromatography/mass spectrometry (LC-MS/MS).
Analyte identification: The LC-MS/MS detection (with in-line UV detection at 280 nm) of test compounds and potential GSH-adducts was focused on extracting selected ion chromatographic profiles using the protonated molecular ion MH^+ m/z for parent to 4 decimal places, and corresponding protonated molecular ions of predicted GSH-adduct metabolites (m/z MH^+ parent+305.0681 amu) using Xcalibur software (version 2.1.0, Thermo Fisher Scientific, Waltham, MA). Relative GSH-adduct abundance in vitro in liver microsome extracts was assessed using the LC/UV absorbance at 280 nm peak area ratio obtained by using Xcalibur software (version 2.1.0) between the detected GSH-adducts from NADPH- and GSH-fortified incubation extracts and the corresponding LC/UV peak area of the parent compound from minus NADPH containing incubation extracts. The extent of GSH-adduct formation was determined by LC-MS/MS analysis with in-line LC-UV detection at 280 nm by dividing the glutathione-adduct LC/UV peak area by the LC/UV peak area of the corresponding parent HCM-1 NG analog determined from analysis of control (-NAPDH, -GSH) incubations extracts.
Materials: Pooled male human (HLM, 50 donors) liver microsomes were obtained from Bioreclamation IVT (Baltimore, MD). Glutathione (GSH) and NADPH were purchased from Sigma Chemical Co. (St. Louis, MO). All solvents used for liquid chromatography-tandem mass spectrometry (LC-MS/MS) analyses were of chromatographic grade.
LC-MS Conditions: Extracts from incubations with liver microsomes and hepatocytes were characterized by LC-MS and LC-MS/MS on a Thermo Electron LTQ Orbitrap XL mass spectrometer coupled with a Dionex UltiMate 3000 UHPLC containing in-line diode array detection and an OAS-3300TXRS Autosampler (40 μL injection volume). Electrospray ionization (ESI) was employed in the positive ion mode with the needle potential held at 5.01 kV, a sheath flow rate of 35.02, aux flow rate of 9.99, a current of 2.6 uA, a capillary temperature of 325° C., and a capillary voltage of 15.99. Vacuum conditions used were an ion gauge pressure used was 2.33×10^−5 Torr and a convection gauge pressure of 0.90 Torr. […]

bovine cardiac myosin [3] = target: T1, bovine cardiac myosin; test: Myosin inhibition assay (bcMF serum pCa 6 IC50), 10% human serum; type: biochemical; conditions: in the presence of 10% human serum
Excerpt: Myosin Inhibition Assay (bcMF Serum pCa 6 IC50 (μM))
Inhibition of the enzymatic activity of bovine cardiac myosin associated with the release of ADP (adenosine diphosphate) at the calcium concentrate that achieves a 50% activation of the bovine cardiac myofibril system in the presence of 10% human serum. The procedure was the same as that bovin cardiac myosin inhibition assay (bcMF pCa 6 IC50 (μM)) but with the addition of 10% human serum.

rabbit skeletal myosin = test: Myosin inhibition assay (rbskMF pCa 6 IC50); type: biochemical; conditions: cardiac vs rabbit skeletal myofibrils
Excerpt: Myosin inhibition assay (rbskMF pCa 6 IC50 (μM))
Inhibition of the enzymatic activity of rabbit skeletal myosin associated with the release of ADP (adenosine diphosphate) at the calcium concentrate that achieves a 50% activation of the rabbit skeletal myofibril system. The procedure was the same as that of bovin cardiac myosin inhibition assay (bcMF pCa 6 IC50 (μM)) by replacing bovine cardiac myofibril with rabbit skeletal myofibril.

T1 sequence (Q9BE39 whole entry): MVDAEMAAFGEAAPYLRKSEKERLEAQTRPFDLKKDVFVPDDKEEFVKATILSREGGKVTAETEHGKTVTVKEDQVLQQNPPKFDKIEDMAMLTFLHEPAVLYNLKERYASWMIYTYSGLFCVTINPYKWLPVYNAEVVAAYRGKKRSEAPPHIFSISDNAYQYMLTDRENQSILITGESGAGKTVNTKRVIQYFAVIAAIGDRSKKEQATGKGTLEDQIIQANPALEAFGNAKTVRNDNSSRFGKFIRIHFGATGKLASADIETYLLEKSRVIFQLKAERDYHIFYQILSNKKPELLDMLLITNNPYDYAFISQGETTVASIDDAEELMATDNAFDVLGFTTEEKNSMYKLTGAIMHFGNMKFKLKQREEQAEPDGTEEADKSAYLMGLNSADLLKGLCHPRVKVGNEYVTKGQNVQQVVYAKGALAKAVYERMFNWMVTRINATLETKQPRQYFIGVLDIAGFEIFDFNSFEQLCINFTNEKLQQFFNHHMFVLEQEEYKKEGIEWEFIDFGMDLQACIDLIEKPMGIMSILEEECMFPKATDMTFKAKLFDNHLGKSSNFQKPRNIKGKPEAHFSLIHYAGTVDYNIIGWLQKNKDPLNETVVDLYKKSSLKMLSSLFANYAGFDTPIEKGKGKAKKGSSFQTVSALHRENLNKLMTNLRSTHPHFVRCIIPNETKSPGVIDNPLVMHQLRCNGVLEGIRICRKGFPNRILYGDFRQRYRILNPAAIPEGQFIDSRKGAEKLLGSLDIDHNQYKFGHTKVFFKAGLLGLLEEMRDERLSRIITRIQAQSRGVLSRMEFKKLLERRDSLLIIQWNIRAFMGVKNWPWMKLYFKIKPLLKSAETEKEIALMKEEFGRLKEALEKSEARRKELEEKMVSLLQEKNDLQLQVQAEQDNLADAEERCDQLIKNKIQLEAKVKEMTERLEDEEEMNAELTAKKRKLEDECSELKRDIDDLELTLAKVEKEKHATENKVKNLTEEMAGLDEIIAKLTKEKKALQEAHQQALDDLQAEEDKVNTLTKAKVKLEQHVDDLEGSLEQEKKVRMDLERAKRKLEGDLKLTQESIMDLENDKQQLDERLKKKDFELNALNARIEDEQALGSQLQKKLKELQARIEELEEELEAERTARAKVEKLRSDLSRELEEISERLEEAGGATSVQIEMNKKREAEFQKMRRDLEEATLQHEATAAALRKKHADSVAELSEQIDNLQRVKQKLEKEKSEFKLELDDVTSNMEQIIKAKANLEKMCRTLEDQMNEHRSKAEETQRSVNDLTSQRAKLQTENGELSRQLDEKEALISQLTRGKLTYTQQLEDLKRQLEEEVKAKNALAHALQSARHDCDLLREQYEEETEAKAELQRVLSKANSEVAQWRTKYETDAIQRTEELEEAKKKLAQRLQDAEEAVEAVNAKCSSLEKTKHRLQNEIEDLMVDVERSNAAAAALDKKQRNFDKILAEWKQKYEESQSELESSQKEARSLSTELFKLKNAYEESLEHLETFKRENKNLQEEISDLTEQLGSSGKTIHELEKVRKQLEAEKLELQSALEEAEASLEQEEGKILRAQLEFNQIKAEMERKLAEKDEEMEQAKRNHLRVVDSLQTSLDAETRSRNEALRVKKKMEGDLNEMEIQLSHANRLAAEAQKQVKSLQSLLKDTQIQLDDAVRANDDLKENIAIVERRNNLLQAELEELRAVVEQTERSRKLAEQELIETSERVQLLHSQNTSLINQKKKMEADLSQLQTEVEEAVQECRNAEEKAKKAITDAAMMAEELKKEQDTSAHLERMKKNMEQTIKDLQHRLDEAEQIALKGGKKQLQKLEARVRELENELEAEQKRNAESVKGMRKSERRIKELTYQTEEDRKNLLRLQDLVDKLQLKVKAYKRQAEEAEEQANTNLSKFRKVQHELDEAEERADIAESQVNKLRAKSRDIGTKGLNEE
T1 sequence (P85100 whole entry partner): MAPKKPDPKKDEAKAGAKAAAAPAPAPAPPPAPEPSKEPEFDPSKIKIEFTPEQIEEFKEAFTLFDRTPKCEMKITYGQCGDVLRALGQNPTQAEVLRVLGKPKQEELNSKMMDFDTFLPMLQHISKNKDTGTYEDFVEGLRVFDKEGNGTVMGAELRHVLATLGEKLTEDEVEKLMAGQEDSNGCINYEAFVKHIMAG
T1 sequence (Q3SZE5 whole entry partner): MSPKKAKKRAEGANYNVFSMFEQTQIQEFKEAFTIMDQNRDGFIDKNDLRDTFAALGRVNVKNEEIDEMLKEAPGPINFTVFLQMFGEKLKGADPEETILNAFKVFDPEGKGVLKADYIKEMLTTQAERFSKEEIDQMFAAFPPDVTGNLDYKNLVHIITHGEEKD

## O=c1[nH]c2c(c(=O)n1C1CCOCC1)C[C@H](F)[C@H](c1cc(CO)ccc1F)N2
Bovine cardiac myosin [1]; read-out: bcMF pCa_6 IC50 MEAN
  IC50: 780 nM

## Cc1ccc(F)c([C@H]2Nc3[nH]c(=O)n(C4CCOCC4)c(=O)c3C[C@H]2F)c1 [Compound 5, (6R,7R)-6-fluoro-7-(2-fluoro-5-methylphenyl)-3-(tetrahydro-2H-pyran-4-yl)-5,6,7,8-tetrahydropyrido[2,3-d]pyrimidine-2,4(1H, 3H)-dione]
[2]
  Glutathione Adduct Detection in Human Liver Microsome Incubations (single measurement): Not Detected
  Glutathione Adduct Detection in Human Liver Microsome Incubations, Average (triple measurements): Not Detected
Bovine cardiac myosin [1]; read-out: bcMF pCa_6 IC50 MEAN
  IC50: 20800 nM

## COc1ccc(F)c([C@@H]2Nc3[nH]c(=O)n(C4CCOCC4)c(=O)c3C[C@@H]2F)c1 [Compound 10]
[2]
  Glutathione Adduct Detection in Human Liver Microsome Incubations (single measurement): Not Detected
  Glutathione Adduct Detection in Human Liver Microsome Incubations, Average (triple measurements): Not Detected
Bovine cardiac myosin [1]; read-out: bcMF pCa_6 IC50 MEAN
  IC50: 1020 nM

## Cc1ccc(F)c([C@H]2Nc3[nH]c(=O)n(C4CCOCC4)c(=O)c3C[C@@H]2F)c1 [Compound 6, (6S,7R)-6-fluoro-7-(2-fluoro-5-methylphenyl)-3-(tetrahydro-2H-pyran-4-yl)-5,6,7,8-tetrahydropyrido[2,3-d]pyrimidine-2,4(1H,3H)-dione]
[2]
  Glutathione Adduct Detection in Human Liver Microsome Incubations (single measurement): Not Detected
  Glutathione Adduct Detection in Human Liver Microsome Incubations, Average (triple measurements): Not Detected
Bovine cardiac myosin [1]; read-out: bcMF pCa_6 IC50 MEAN
  IC50: 26400 nM

## Cc1ccc(F)c([C@@H]2Nc3[nH]c(=O)n(C4CCOCC4)c(=O)c3C[C@H]2F)c1 [Compound 4, (6R,7S)-6-fluoro-7-(2-fluoro-5-methylphenyl)-3-(tetrahydro-2H-pyran-4-yl)-5,6,7,8-tetrahydropyrido[2,3-d]pyrimidine-2,4(1H, 3H)-dione]
[2]
  Glutathione Adduct Detection in Human Liver Microsome Incubations (single measurement): Not Detected
  Glutathione Adduct Detection in Human Liver Microsome Incubations, Average (triple measurements): Not Detected
Bovine cardiac myosin [1]; read-out: bcMF pCa_6 IC50 MEAN
  IC50: 370 nM

## C#Cc1ccc(F)c([C@@H]2Nc3[nH]c(=O)n(C4CCOCC4)c(=O)c3C[C@@H]2F)c1 [Compound 7]
Bovine cardiac myosin [1]; read-out: bcMF pCa_6 IC50 MEAN
  IC50: 540 nM

## COc1ccc(F)c([C@@H]2Nc3[nH]c(=O)n(C4CCOCC4)c(=O)c3C[C@H]2F)c1 [Compound 11]
[2]
  Glutathione Adduct Detection in Human Liver Microsome Incubations (single measurement): Not Detected
  Glutathione Adduct Detection in Human Liver Microsome Incubations, Average (triple measurements): Not Detected
Bovine cardiac myosin [1]; read-out: bcMF pCa_6 IC50 MEAN
  IC50: 490 nM

## O=c1[nH]c2c(c(=O)n1C1CCOCC1)C[C@@H](F)[C@H](c1ccccc1F)N2 [Compound 8]
[2]
  Glutathione Adduct Detection in Human Liver Microsome Incubations (single measurement): Not Detected
  Glutathione Adduct Detection in Human Liver Microsome Incubations, Average (triple measurements): Not Detected
Bovine cardiac myosin [1]; read-out: bcMF pCa_6 IC50 MEAN
  IC50: 1460 nM

## O=c1[nH]c2c(c(=O)n1C1CCOCC1)C[C@@H](F)[C@@H](c1cccc(F)c1)N2 [Compound 12]
[2]
  Glutathione Adduct Detection in Human Liver Microsome Incubations (single measurement): Not Detected
  Glutathione Adduct Detection in Human Liver Microsome Incubations, Average (triple measurements): Not Detected
Bovine cardiac myosin [1]; read-out: bcMF pCa_6 IC50 MEAN
  IC50: 23200 nM

## O=c1[nH]c2c(c(=O)n1C1CCOCC1)C[C@H](F)[C@H](c1cccc(F)c1)N2 [Compound 1, (6S,7S)-6-fluoro-7-(3-fluorophenyl)-3-(tetrahydro-2H-pyran-4-yl)-5,6,7,8-tetrahydropyrido[2,3-d]pyrimidine-2, 4(1H, 3H)-dione]
Bovine cardiac myosin [3]
  IC50: 3700 nM
[2]; human liver microsomes, 30 μM, 60 min
  % GSH-adduct (+NADPH, +GSH) relative to parent (−NADPH, −GSH): Not Detected
[2]
  Glutathione Adduct Detection in Human Liver Microsome Incubations (single measurement): Not Detected
  Glutathione Adduct Detection in Human Liver Microsome Incubations, Average (triple measurements): Not Detected
Rabbit skeletal myosin
  Cardiac selectivity ratio vs rbskMF pCa 6 IC50: 7.38
Bovine cardiac myosin [1]; read-out: bcMF pCa 6 IC50
  IC50: 3030 nM
Bovine cardiac myosin [1]; read-out: bcMF pCa_6 IC50 MEAN
  IC50: 3030 nM

## O=c1[nH]c2c(c(=O)n1C1CCOCC1)C[C@@H](F)[C@H](c1cccc(F)c1)N2 [Compound 2, (6R,7S)-6-fluoro-7-(3-fluorophenyl)-3-(tetrahydro-2H-pyran-4-yl)-5,6,7,8-tetrahydropyrido[2,3-d]pyrimidine-2,4(1H, 3H)-dione]
Bovine cardiac myosin [3]
  IC50: 3110 nM
[2]
  Glutathione Adduct Detection in Human Liver Microsome Incubations (single measurement): Not Detected
  Glutathione Adduct Detection in Human Liver Microsome Incubations, Average (triple measurements): Not Detected
Rabbit skeletal myosin
  Cardiac selectivity ratio vs rbskMF pCa 6 IC50: 10.71
Bovine cardiac myosin [1]; read-out: bcMF pCa 6 IC50
  IC50: 2130 nM
Bovine cardiac myosin [1]; read-out: bcMF pCa_6 IC50 MEAN
  IC50: 2130 nM

## O=c1[nH]c2c(c(=O)n1C1CCOCC1)C[C@H](F)[C@H](c1ccccc1F)N2 [Compound 9]
[2]
  Glutathione Adduct Detection in Human Liver Microsome Incubations (single measurement): Not Detected
  Glutathione Adduct Detection in Human Liver Microsome Incubations, Average (triple measurements): Not Detected
Bovine cardiac myosin [1]; read-out: bcMF pCa_6 IC50 MEAN
  IC50: 5590 nM
